Reference: patent publication EP1918289A2, “Crystalline fluoroquinolone arginine salt form” (Wockhardt Limited, priority 2002, dated 2005)

Tests used:
[1] = antibacterial activity (minimum inhibitory concentration, MIC); details: compared with the R-(+)- and RS-(±)- acids
[2] = hygroscopicity (exposure or storage at relative humidity, gravimetric); details: on exposure at a relative humidity of 41%

Row | Compound | antimicrobial activity [1] | hygroscopicity [2]
1 | C[C@H]1CCc2c(N3CCC(O)CC3)c(F)cc3c(=O)c(C(=O)O)cn1c23 | more potent | 
2 | S-(-)-9-fluoro-6,7-dihydro-8-(4-hydroxypiperidin-1-yl)-5-methyl-1-oxo-1 H,5H-benzo[i,j] quinolizine-2-carboxylic acid, L-arginine salt 0.25 hydrate |  | highly hygroscopic and turn into syrups
3 | S-(-)-9-fluoro-6,7-dihydro-8-(4-hydroxypiperin-1-yl)-5-methyl-1-oxo-1H,5H-benzo[i,j] quinolizine-2-carboxylic acid, L-arginine salt, 0.75 hydrate |  | highly hygroscopic and turn into syrups
